Data from ChEMBL document CHEMBL4400545 (Bioorg Med Chem, 2019).

Biological target: Sodium- and chloride-dependent GABA transporter 1 (Mus musculus) (UniProt P31648)
Test: Inhibition of mouse GAT-1 assessed as percentage of remaining specific binding of NO711 at 1 uM after 4 hrs by LC-ESI-MS/ms analysis relative to control

Row | Structure (SMILES) | Activity [%]
1 | CC(C=O)(CCC#N)c1ccccc1 (stereo unspecified) | 92
2 | COc1ccc(C=O)cc1 | 89
3 | COc1ccccc1C=O | 89
4 | Cc1ccccc1-c1ncccc1C=O | 87
5 | Cc1ccsc1-c1sc(C=O)cc1C | 97
6 | Cc1noc(-c2ccccc2C=O)n1 | 97
7 | Cc1onc(-c2ccc(Cl)cc2)c1C=O | 92
8 | O=CC(c1ccccc1)c1ccccc1 | 90
9 | O=CC1CC2C=CC1C2 (stereo unspecified) | 85
10 | O=Cc1c2ccccc2cc2ccccc12 | 87
11 | O=Cc1c[nH]c2ncccc12 | 85
12 | O=Cc1c[nH]nc1-c1ccc(F)cc1 | 92
13 | O=Cc1cc(F)ccc1-c1ccc(Cl)cc1Cl | 82
14 | O=Cc1cc(F)ccc1-c1ccccc1 | 80
15 | O=Cc1cc(F)ccc1-c1ccccc1Cl | 80
16 | O=Cc1cc(F)ccc1-c1ccccc1F | 80
17 | O=Cc1cc2c(cc1-c1ccc(Cl)cc1Cl)OCO2 | 92
18 | O=Cc1cc2c(cc1-c1ccccc1)OCO2 | 92
19 | O=Cc1cc2c(cc1-c1ccccc1Cl)OCO2 | 92
20 | O=Cc1cc2c(cc1-c1ccccc1F)OCO2 | 92
21 | O=Cc1ccc(-c2ccc(C(F)(F)F)cc2Cl)o1 | 82
22 | O=Cc1ccc(-c2ccccc2)cc1 | 90

Row | Structure (SMILES) | Activity [%]
23 | O=Cc1ccc(-c2ccccc2OC(F)(F)F)o1 | 82
24 | O=Cc1ccc(Br)cn1 | 92
25 | O=Cc1ccc(Br)nc1 | 92
26 | O=Cc1ccc(C#Cc2ccccc2)s1 | 94
27 | O=Cc1ccc(O)cc1 | 89
28 | O=Cc1ccc(OCc2ccccc2)cc1 | 90
29 | O=Cc1ccc(Oc2ccccc2)cc1 | 90
30 | O=Cc1ccc([N+](=O)[O-])cc1 | 92
31 | O=Cc1ccc2c(c1)Cc1ccccc1-2 | 88
32 | O=Cc1ccc2ccccc2n1 | 87
33 | O=Cc1cccc(Br)n1 | 92
34 | O=Cc1cccc(Oc2ccccc2)c1 | 90
35 | O=Cc1cccc([N+](=O)[O-])c1 | 92
36 | O=Cc1cccc2c1OCO2 | 80
37 | O=Cc1ccccc1 | 89
38 | O=Cc1ccccc1-c1c(F)cccc1F | 88
39 | O=Cc1ccccc1-c1cc(F)ccc1F | 88
40 | O=Cc1ccccc1-c1ccc(Cl)cc1 | 92
41 | O=Cc1ccccc1-c1ccc(Cl)cc1Cl | 93
42 | O=Cc1ccccc1-c1ccc(F)cc1 | 92
43 | O=Cc1ccccc1-c1ccc(F)cc1Cl | 93
44 | O=Cc1ccccc1-c1ccc2ccccc2c1 | 86

Row | Structure (SMILES) | Activity [%]
45 | O=Cc1ccccc1-c1cccc(Cl)c1 | 92
46 | O=Cc1ccccc1-c1cccc(F)c1 | 92
47 | O=Cc1ccccc1-c1cccc(F)c1F | 88
48 | O=Cc1ccccc1-c1cccc2ccccc12 | 85
49 | O=Cc1ccccc1-c1ccccc1 | 90
50 | O=Cc1ccccc1-c1ccccc1Cl | 93
51 | O=Cc1ccccc1-c1ccccc1F | 93
52 | O=Cc1ccccc1-c1cccnc1 | 88
53 | O=Cc1ccccc1-c1ccco1 | 80
54 | O=Cc1ccccc1-c1cccs1 | 92
55 | O=Cc1ccccc1-n1cccc1 | 97
56 | O=Cc1ccccc1-n1cccn1 | 88
57 | O=Cc1ccccc1OCc1ccccc1 | 90
58 | O=Cc1ccccc1Oc1ccccc1 | 88
59 | O=Cc1ccccc1[N+](=O)[O-] | 92
60 | O=Cc1ccccn1 | 85
61 | O=Cc1cccn1-c1ccc(C(F)(F)F)cc1 | 82
62 | O=Cc1cccnc1 | 94
63 | O=Cc1cccnc1-c1ccc(Cl)cc1 | 87
64 | O=Cc1cccnc1-c1ccc(Cl)cc1Cl | 86
65 | O=Cc1cccnc1-c1cccc(Cl)c1 | 80
66 | O=Cc1cccnc1-c1cccc(F)c1 | 87

Row | Structure (SMILES) | Activity [%]
67 | O=Cc1cccnc1-c1ccccc1 | 87
68 | O=Cc1cccnc1-c1ccccc1Cl | 97
69 | O=Cc1cccnc1-c1ccccc1F | 80
70 | O=Cc1cccnc1Br | 92
71 | O=Cc1ccnc2ccccc12 | 87
72 | O=Cc1csc2ccccc12 | 94
73 | O=Cc1sccc1-c1ccc(Cl)cc1Cl | 86
74 | O=Cc1sccc1-c1ccc(F)cc1Cl | 86
75 | O=Cc1sccc1-c1ccccc1 | 94
76 | O=Cc1sccc1-n1cccc1 | 92
77 | COc1ccc(/C=N/OCCN2CCCC(C(=O)O)C2)c2ccccc12 (racemic) | 61
78 | COc1ccc(/C=N/OCCN2CCCC(C(=O)O)C2)cc1 (racemic) | 74
79 | COc1ccccc1/C=N/OCCN1CCCC(C(=O)O)C1 (racemic) | 74
80 | Cc1ccc(/C=N/OCCN2CCCC(C(=O)O)C2)c2ccccc12 (racemic) | 60
81 | Cc1ccccc1-c1ncccc1/C=N/OCCN1CCCC(C(=O)O)C1 (racemic) | 22
82 | Cc1ccsc1-c1sc(/C=N/OCCN2CCCC(C(=O)O)C2)cc1C (racemic) | 33
83 | Cc1noc(-c2ccccc2/C=N/OCCN2CCCC(C(=O)O)C2)n1 (racemic) | 33
84 | O=C(O)C1CCCN(CCO/N=C/C2CC3C=CC2C3)C1 (racemic) | 45
85 | O=C(O)C1CCCN(CCO/N=C/COCc2ccccc2)C1 (racemic) | 60
86 | O=C(O)C1CCCN(CCO/N=C/c2c3ccccc3cc3ccccc23)C1 (racemic) | 62
87 | O=C(O)C1CCCN(CCO/N=C/c2c[nH]c3ncccc23)C1 (racemic) | 45
88 | O=C(O)C1CCCN(CCO/N=C/c2cc3c(cc2-c2ccc(Cl)cc2Cl)OCO3)C1 (racemic) | 19

Row | Structure (SMILES) | Activity [%]
89 | O=C(O)C1CCCN(CCO/N=C/c2cc3c(cc2-c2ccccc2)OCO3)C1 (racemic) | 19
90 | O=C(O)C1CCCN(CCO/N=C/c2cc3c(cc2-c2ccccc2Cl)OCO3)C1 (racemic) | 19
91 | O=C(O)C1CCCN(CCO/N=C/c2cc3c(cc2-c2ccccc2F)OCO3)C1 (racemic) | 19
92 | O=C(O)C1CCCN(CCO/N=C/c2cc3ccccc3c3ccccc23)C1 (racemic) | 62
93 | O=C(O)C1CCCN(CCO/N=C/c2ccc(Br)cn2)C1 (racemic) | 71
94 | O=C(O)C1CCCN(CCO/N=C/c2ccc(Br)nc2)C1 (racemic) | 71
95 | O=C(O)C1CCCN(CCO/N=C/c2ccc(C#Cc3ccccc3)s2)C1 (racemic) | 48
96 | O=C(O)C1CCCN(CCO/N=C/c2ccc(F)c3ccccc23)C1 (racemic) | 60
97 | O=C(O)C1CCCN(CCO/N=C/c2ccc(O)c3ccccc23)C1 (racemic) | 61
98 | O=C(O)C1CCCN(CCO/N=C/c2ccc(O)cc2)C1 (racemic) | 74
99 | O=C(O)C1CCCN(CCO/N=C/c2ccc(OCc3ccccc3)cc2)C1 (racemic) | 29
100 | O=C(O)C1CCCN(CCO/N=C/c2ccc(Oc3ccccc3)cc2)C1 (racemic) | 29
101 | O=C(O)C1CCCN(CCO/N=C/c2ccc([N+](=O)[O-])cc2)C1 (racemic) | 60
102 | O=C(O)C1CCCN(CCO/N=C/c2ccc3c(c2)Cc2ccccc2-3)C1 (racemic) | 37
103 | O=C(O)C1CCCN(CCO/N=C/c2ccc3ccccc3c2)C1 (racemic) | 61
104 | O=C(O)C1CCCN(CCO/N=C/c2ccc3ccccc3n2)C1 (racemic) | 62
105 | O=C(O)C1CCCN(CCO/N=C/c2cccc(Br)n2)C1 (racemic) | 71
106 | O=C(O)C1CCCN(CCO/N=C/c2cccc(Oc3ccccc3)c2)C1 (racemic) | 29
107 | O=C(O)C1CCCN(CCO/N=C/c2cccc([N+](=O)[O-])c2)C1 (racemic) | 60
108 | O=C(O)C1CCCN(CCO/N=C/c2cccc3c2OCO3)C1 (racemic) | 32
109 | O=C(O)C1CCCN(CCO/N=C/c2cccc3ccccc23)C1 (racemic) | 61
110 | O=C(O)C1CCCN(CCO/N=C/c2ccccc2)C1 (racemic) | 74

Row | Structure (SMILES) | Activity [%]
111 | O=C(O)C1CCCN(CCO/N=C/c2ccccc2-c2cccc3ccccc23)C1 (racemic) | 45
112 | O=C(O)C1CCCN(CCO/N=C/c2ccccc2-c2cccnc2)C1 (racemic) | 37
113 | O=C(O)C1CCCN(CCO/N=C/c2ccccc2-c2ccco2)C1 (racemic) | 32
114 | O=C(O)C1CCCN(CCO/N=C/c2ccccc2-n2cccc2)C1 (racemic) | 33
115 | O=C(O)C1CCCN(CCO/N=C/c2ccccc2OCc2ccccc2)C1 (racemic) | 29
116 | O=C(O)C1CCCN(CCO/N=C/c2ccccc2Oc2ccccc2)C1 (racemic) | 37
117 | O=C(O)C1CCCN(CCO/N=C/c2ccccc2[N+](=O)[O-])C1 (racemic) | 60
118 | O=C(O)C1CCCN(CCO/N=C/c2ccccn2)C1 (racemic) | 45
119 | O=C(O)C1CCCN(CCO/N=C/c2cccnc2)C1 (racemic) | 48
120 | O=C(O)C1CCCN(CCO/N=C/c2cccnc2-c2ccc(Cl)cc2)C1 (racemic) | 22
121 | O=C(O)C1CCCN(CCO/N=C/c2cccnc2-c2cccc(Cl)c2)C1 (racemic) | 32
122 | O=C(O)C1CCCN(CCO/N=C/c2cccnc2-c2cccc(F)c2)C1 (racemic) | 22
123 | O=C(O)C1CCCN(CCO/N=C/c2cccnc2-c2ccccc2)C1 (racemic) | 22
124 | O=C(O)C1CCCN(CCO/N=C/c2cccnc2-c2ccccc2Cl)C1 (racemic) | 33
125 | O=C(O)C1CCCN(CCO/N=C/c2cccnc2-c2ccccc2F)C1 (racemic) | 32
126 | O=C(O)C1CCCN(CCO/N=C/c2cccnc2Br)C1 (racemic) | 71
127 | O=C(O)C1CCCN(CCO/N=C/c2ccnc3ccccc23)C1 (racemic) | 62
128 | O=C(O)C1CCCN(CCO/N=C/c2ccncc2)C1 (racemic) | 60
129 | O=C(O)C1CCCN(CCO/N=C/c2csc3ccccc23)C1 (racemic) | 48
130 | O=C(O)C1CCCN(CCO/N=C/c2sccc2-c2ccccc2)C1 (racemic) | 48
131 | O=C(O)C1CCCN(CCO/N=C/c2sccc2-n2cccc2)C1 (racemic) | 60
